Data on 2 compounds can be found in patent publication US20260158015A1 (Universite De Bordeaux, priority 2021, published 2026).

Data set [1] deals with SARS-CoV-2 reference strain. As to the kind of experiment: SARS-CoV-2 replication in A549-ACE2 cells (viral genome copies, RT-qPCR). The data set is classed as cell-based. On the technique in general: In qPCR the cycle at which signal appears reflects the starting amount.
The next data set has as its system SARS-CoV-2. Kind of data set: SARS-CoV-2 inhibition summarised over all the cell lines. It counts as cell-based. To be noted: Severe acute respiratory syndrome coronavirus 2.
In data set [2] the test system is lentiviral vectors pseudotyped with the SARS-CoV-2 Spike protein (CoV-2 LV). Kind of data set: microbe, parasite or virus in culture. It counts as cell-based.
In data set [3] the test system is HEK-293T, A549, Calu3 and Caco2 cell lines.
The nature of data set [4]: MTT cytotoxicity (CC50) in A549-ACE2 cells. To be noted: human, A 549-ACE2 cells, four-parameter sigmoidal fit, unit inferred. It counts as cell-based. The protocol: (§1) MTT cell viability assay was performed following furnisher protocols. Cells were seeded at the density of 20,000 cells/well in a 96 well plate containing 100 μL complete DMEM (Gibco, USA) supplemented with 10% FBS (Gibco, USA) and 1% Penstrep (Gibco, USA). Cells were incubated for 12 hours at 37° C. in humidified 5% CO2 incubator for adherence. After 12-hour incubation, the media was replaced with fresh media, and cells were treated with compounds. Untreated cells were considered as negative control, DMSO treated cells were considered as the vehicles. After the treatment, cells were incubated at 37° C. in humidified 5% CO2 incubator. 48-hour post-treatment, 20 μL of MTT substrate (5 mg/mL) was added in each well and incubated for 4 additional hours at 37° C. in the dark. The media was then carefully removed, and 492 nm absorbance was measured.

A further data set deals with VSVg pseudotyped LV. The data set is classed as cell-based.
Data set [5] has as its system SARS-CoV-2 reference strain. Kind of data set: SARS-CoV-2 replication in Calu3 cells (viral genome copies, RT-qPCR). It counts as cell-based.
The nature of data set [6]: MTT cytotoxicity (CC50) in 293-ACE2 cells. The data set is classed as cell-based. To be noted: human, four-parameter sigmoidal fit, unit inferred. The protocol: as §1
The nature of data set [7]: MTT cytotoxicity (CC50) in Calu3 cells. To be noted: human, four-parameter sigmoidal fit, unit inferred. It counts as cell-based. On the procedure: as §1

pIC50: −log10 of the molar value.

By inhibition is commonly meant the relative decrease from the control value, in per cent. Usually CC50 stands for the concentration giving 50% cytotoxicity. Low values mean greater toxicity to the cells, high ones lower toxicity to the cells.

For the compound `CC(C)c1nc(CN(C)C(=O)N[C@H](C(=O)N[C@@H](Cc2ccccc2)C[C@H](O)[C@H](Cc2ccccc2)NC(=O)OCc2cncs2)C(C)C)cs1` [Ritonavir, reference compound], the “comparative efficiency in inhibiting the SARS-CoV-2 replication” value in data set [1] was “AB-00011778 was more efficient than the Ritonavir molecule”.

Take `O=S(=O)(c1ccccc1)n1c(-c2cncc(-c3cc4cc(OCc5ccccc5)ccc4n3S(=O)(=O)c3ccccc3)c2)cc2cc(OCc3ccccc3)ccc21` [AB-00011778]: in the data set on SARS-CoV-2 (at 1 μM, pulmonary A549-ACE2 and Calu3 cells, read-out: inhibition of virus replication), the inhibition at 1 µM is 40 to 60%. Besides, the pIC50 is 5.30 to 6.60 with SARS-CoV-2 (read-out: IC50 among all the cell lines); 6.60 in [1] (Severe acute respiratory syndrome coronavirus 2, A549-ACE2, A 549-ACE2 cells, apparent IC50, unit inferred); 6.00 in data set [2] (Severe acute respiratory syndrome coronavirus 2, 293-ACE2 cells, apparent IC50, unit inferred); around 6.00 in [5] (Severe acute respiratory syndrome coronavirus 2, Calu-3, SARS-CoV-2 reference strain, 24 hours, read-out: concentration giving 50% inhibition of the viral replication); 6.00 in [5] (Severe acute respiratory syndrome coronavirus 2, Calu-3, apparent IC50, unit inferred, read-out: IC50). Also, the “comparative efficiency in inhibiting the SARS-CoV-2 replication” value in data set [1] is listed as “more efficient than the Ritonavir molecule”. For the same compound, the “decrease of the viral infectivity (CoV-2 LVs)” value in [2] lay within 40 to 80%. For the same compound, the “cytotoxicity in various cell lines” value in [3] (various cell lines, no concentration stated) is reported as “without showing significant cyto-toxicity”. In addition, the “cytotoxicity (MTT assay)” value in data set [3] (within the 0-50 μM range, HEK-293T, A549, Calu3 and Caco2) is on record as “no or poor cytotoxicity”. For the same compound, the CC50 at 48 h was above 30000 nM in data set [4], above 50000 nM in data set [6] and above 30000 nM in data set [7]. For the same compound, in the data set with VSVg pseudotyped LV, the “effect on the VSVg LVs infectivity” value is on record as “without significant effect”.
